Results as given in ChEMBL document CHEMBL4138123, “Design, synthesis and biological evaluation of novel pyrazolochalcones as potential modulators of PI3K/Akt/mTOR pathway and inducers of apoptosis in breast cancer cells” (Eur J Med Chem, 2017).

How the values were obtained:
Type in all cases: functional
[1] = tested on: SNB-75; test: Cytotoxicity against human SNB75 cells assessed as cell growth at 10 uM after 48 hrs by sulforhodamine B assay relative to control; settings: SNB-75, 48 h, read-out: Activity
[2] = tested on: SNB-75; test: Cytotoxicity against human SNB75 cells assessed as cell growth at 0.1 uM after 48 hrs by sulforhodamine B assay relative to control; settings: SNB-75, 48 h, read-out: Activity
[3] = tested on: CAKI-1; test: Cytotoxicity against human Caki1 cells assessed as cell growth at 100 uM after 48 hrs by sulforhodamine B assay relative to control; settings: CAKI-1, 48 h, read-out: Activity
[4] = tested on: SF-295; test: Cytotoxicity against human SF295 cells assessed as cell growth at 1 uM after 48 hrs by sulforhodamine B assay relative to control; settings: SF-295, 48 h, read-out: Activity
[5] = tested on: CAKI-1; test: Cytotoxicity against human Caki1 cells assessed as cell growth at 0.1 uM after 48 hrs by sulforhodamine B assay relative to control; settings: CAKI-1, 48 h, read-out: Activity
[6] = tested on: SF-295; test: Cytotoxicity against human SF295 cells assessed as cell growth at 0.01 uM after 48 hrs by sulforhodamine B assay relative to control; settings: SF-295, 48 h, read-out: Activity
[7] = tested on: SNB-75; test: Cytotoxicity against human SNB75 cells assessed as cell growth at 0.01 uM after 48 hrs by sulforhodamine B assay relative to control; settings: SNB-75, 48 h, read-out: Activity
[8] = tested on: SF-295; test: Cytotoxicity against human SF295 cells assessed as cell growth at 0.1 uM after 48 hrs by sulforhodamine B assay relative to control; settings: SF-295, 48 h, read-out: Activity
[9] = tested on: SF-295; test: Cytotoxicity against human SF295 cells assessed as cell growth at 100 uM after 48 hrs by sulforhodamine B assay relative to control; settings: SF-295, 48 h, read-out: Activity
[10] = tested on: CAKI-1; test: Cytotoxicity against human Caki1 cells assessed as cell growth at 10 uM after 48 hrs by sulforhodamine B assay relative to control; settings: CAKI-1, 48 h, read-out: Activity
[11] = tested on: CAKI-1; test: Cytotoxicity against human Caki1 cells assessed as cell growth at 0.01 uM after 48 hrs by sulforhodamine B assay relative to control; settings: CAKI-1, 48 h, read-out: Activity
[12] = tested on: SF-295; test: Cytotoxicity against human SF295 cells assessed as cell growth at 10 uM after 48 hrs by sulforhodamine B assay relative to control; settings: SF-295, 48 h, read-out: Activity
[13] = tested on: SNB-75; test: Cytotoxicity against human SNB75 cells assessed as cell growth at 1 uM after 48 hrs by sulforhodamine B assay relative to control; settings: SNB-75, 48 h, read-out: Activity
[14] = tested on: CAKI-1; test: Cytotoxicity against human Caki1 cells assessed as growth inhibition after 48 hrs by sulforhodamine B assay; settings: CAKI-1, 48 h
[15] = tested on: CAKI-1; test: Cytotoxicity against human Caki1 cells assessed as cell growth at 1 uM after 48 hrs by sulforhodamine B assay relative to control; settings: CAKI-1, 48 h, read-out: Activity
[16] = tested on: SF-295; test: Cytotoxicity against human SF295 cells assessed as growth inhibition after 48 hrs by sulforhodamine B assay; settings: SF-295, 48 h
[17] = tested on: SNB-75; test: Cytotoxicity against human SNB75 cells assessed as cell growth at 100 uM after 48 hrs by sulforhodamine B assay relative to control; settings: SNB-75, 48 h, read-out: Activity
[18] = tested on: SK-MEL-2; test: Cytotoxicity against human SK-MEL-2 cells assessed as cell growth at 100 uM after 48 hrs by sulforhodamine B assay relative to control; settings: SK-MEL-2, 48 h, read-out: Activity
[19] = tested on: SK-MEL-2; test: Cytotoxicity against human SK-MEL-2 cells assessed as cell growth at 10 uM after 48 hrs by sulforhodamine B assay relative to control; settings: SK-MEL-2, 48 h, read-out: Activity
[20] = tested on: SK-MEL-2; test: Cytotoxicity against human SK-MEL-2 cells assessed as cell growth at 0.01 uM after 48 hrs by sulforhodamine B assay relative to control; settings: SK-MEL-2, 48 h, read-out: Activity
[21] = tested on: LOX IMVI; test: Cytotoxicity against human LOXIMVI cells assessed as cell growth at 0.01 uM after 48 hrs by sulforhodamine B assay relative to control; settings: read-out: Activity
[22] = tested on: LOX IMVI; test: Cytotoxicity against human LOXIMVI cells assessed as cell growth at 1 uM after 48 hrs by sulforhodamine B assay relative to control; settings: read-out: Activity
[23] = tested on: LOX IMVI; test: Cytotoxicity against human LOXIMVI cells assessed as cell growth at 10 uM after 48 hrs by sulforhodamine B assay relative to control; settings: read-out: Activity
[24] = tested on: LOX IMVI; test: Cytotoxicity against human LOXIMVI cells assessed as cell growth at 0.1 uM after 48 hrs by sulforhodamine B assay relative to control; settings: read-out: Activity
[25] = tested on: SK-MEL-2; test: Cytotoxicity against human SK-MEL-2 cells assessed as cell growth at 0.1 uM after 48 hrs by sulforhodamine B assay relative to control; settings: SK-MEL-2, 48 h, read-out: Activity
[26] = tested on: SK-MEL-2; test: Cytotoxicity against human SK-MEL-2 cells assessed as cell growth at 1 uM after 48 hrs by sulforhodamine B assay relative to control; settings: SK-MEL-2, 48 h, read-out: Activity
[27] = tested on: LOX IMVI; test: Cytotoxicity against human LOXIMVI cells assessed as cell growth at 100 uM after 48 hrs by sulforhodamine B assay relative to control; settings: read-out: Activity
[28] = tested on: HOP-92; test: Cytotoxicity against human HOP92 cells assessed as growth inhibition after 48 hrs by sulforhodamine B assay; settings: HOP-92, 48 h
[29] = tested on: HOP-92; test: Cytotoxicity against human HOP92 cells assessed as cell growth at 0.1 uM after 48 hrs by sulforhodamine B assay relative to control; settings: HOP-92, 48 h, read-out: Activity
[30] = tested on: HOP-92; test: Cytotoxicity against human HOP92 cells assessed as cell growth at 10 uM after 48 hrs by sulforhodamine B assay relative to control; settings: HOP-92, 48 h, read-out: Activity
[31] = tested on: HOP-92; test: Cytotoxicity against human HOP92 cells assessed as cell growth at 1 uM after 48 hrs by sulforhodamine B assay relative to control; settings: HOP-92, 48 h, read-out: Activity
[32] = tested on: HOP-92; test: Cytotoxicity against human HOP92 cells assessed as cell growth at 100 uM after 48 hrs by sulforhodamine B assay relative to control; settings: HOP-92, 48 h, read-out: Activity
[33] = tested on: HOP-92; test: Cytotoxicity against human HOP92 cells assessed as cell growth at 0.01 uM after 48 hrs by sulforhodamine B assay relative to control; settings: HOP-92, 48 h, read-out: Activity

SMILES: COc1ccc(-c2cc(/C=C/C(=O)c3ccc(N)cc3)[nH]n2)cc1
- growth at 10 µM [1]: 6%
- growth at 0.1 µM [2]: 88%
- growth at 100 µM [3]: -63%
- growth at 1 µM [4]: 88%
- growth at 0.1 µM [5]: 97%
- growth at 0.01 µM [6]: 93%
- growth at 0.01 µM [7]: 85%
- growth at 0.1 µM [8]: 95%
- growth at 100 µM [9]: -76%
- growth at 10 µM [10]: 3%
- growth at 0.01 µM [11]: 95%
- growth at 10 µM [12]: 10%
- growth at 1 µM [13]: 74%
- GI50 [14]: 1.32 µM
- LC50 [14]: 64.3 µM
- TGI [14]: 11.1 µM
- growth at 1 µM [15]: 56%
- GI50 [16]: 3.09 µM
- LC50 [16]: 49.6 µM
- TGI [16]: 13.1 µM
- growth at 100 µM [17]: -96%

SMILES: COc1cc(-c2cc(/C=C/C(=O)c3ccc(F)c(F)c3)[nH]n2)cc(OC)c1OC
- growth at 100 µM [18]: -64%
- growth at 100 µM [3]: 3%
- growth at 10 µM [19]: -28%
- growth at 0.1 µM [5]: 94%
- growth at 0.01 µM [20]: 93%
- growth at 0.01 µM [21]: 93%
- growth at 1 µM [22]: 92%
- growth at 10 µM [10]: 12%
- growth at 0.01 µM [11]: 95%
- growth at 10 µM [23]: 8%
- LC50 [14]: > 100 µM
- TGI [14]: > 100 µM
- growth at 0.1 µM [24]: 94%
- growth at 1 µM [15]: 84%
- growth at 0.1 µM [25]: 98%
- growth at 1 µM [26]: 94%
- growth at 100 µM [27]: -86%

SMILES: COc1ccc(-c2cc(/C=C/C(=O)c3ccc4c(c3)OCO4)[nH]n2)cc1OC
- GI50 [28]: 1.97 µM
- GI50 [16]: 1.6 µM

SMILES: COc1ccc(-c2cc(/C=C/C(=O)c3ccc(N)cc3)[nH]n2)cc1OC
- growth at 100 µM [18]: -86%
- growth at 10 µM [1]: 17%
- growth at 0.1 µM [29]: 87%
- growth at 0.1 µM [2]: 92%
- growth at 10 µM [30]: 77%
- growth at 10 µM [19]: 46%
- growth at 1 µM [4]: 87%
- growth at 1 µM [31]: 87%
- growth at 0.01 µM [6]: 83%
- growth at 0.01 µM [7]: 81%
- growth at 0.1 µM [8]: 90%
- growth at 100 µM [32]: -81%
- growth at 0.01 µM [20]: 103%
- growth at 0.01 µM [21]: 100%
- GI50 [28]: 1.49 µM
- TGI [28]: 30.9 µM
- CC50 ([28]; read-out: LC50 (the source's name)): 63.9 µM
- growth at 1 µM [22]: 96%
- growth at 100 µM [9]: -91%
- growth at 10 µM [12]: 20%
- growth at 1 µM [13]: 75%
- growth at 10 µM [23]: -66%
- growth at 0.1 µM [24]: 102%
- growth at 0.01 µM [33]: 86%
- GI50 [16]: 3.58 µM
- LC50 [16]: 42.9 µM
- TGI [16]: 15.2 µM
- growth at 0.1 µM [25]: 109%
- growth at 1 µM [26]: 102%
- growth at 100 µM [17]: -97%
- growth at 100 µM [27]: -81%

SMILES: COc1cc(-c2cc(/C=C/C(=O)c3ccc4c(c3)OCO4)[nH]n2)cc(OC)c1OC
- growth at 100 µM [18]: -60%
- growth at 100 µM [3]: 27%
- growth at 10 µM [19]: 51%
- growth at 0.1 µM [5]: 96%
- growth at 0.01 µM [20]: 90%
- growth at 0.01 µM [21]: 93%
- growth at 1 µM [22]: 91%
- growth at 10 µM [10]: 35%
- growth at 0.01 µM [11]: 96%
- growth at 10 µM [23]: -67%
- LC50 [14]: > 100 µM
- TGI [14]: > 100 µM
- growth at 0.1 µM [24]: 93%
- growth at 1 µM [15]: 92%
- growth at 0.1 µM [25]: 93%
- growth at 1 µM [26]: 101%
- growth at 100 µM [27]: -54%
